Key:
[1] = biological target: Photinus pyralis (firefly) luciferase (Photinus pyralis, UniProt P08659); test: biochemical; type: biochemical
human CYP1A2 = biological target: T1, human CYP1A2 (Homo sapiens, UniProt P05177)
T1 sequence (P05177 1-516): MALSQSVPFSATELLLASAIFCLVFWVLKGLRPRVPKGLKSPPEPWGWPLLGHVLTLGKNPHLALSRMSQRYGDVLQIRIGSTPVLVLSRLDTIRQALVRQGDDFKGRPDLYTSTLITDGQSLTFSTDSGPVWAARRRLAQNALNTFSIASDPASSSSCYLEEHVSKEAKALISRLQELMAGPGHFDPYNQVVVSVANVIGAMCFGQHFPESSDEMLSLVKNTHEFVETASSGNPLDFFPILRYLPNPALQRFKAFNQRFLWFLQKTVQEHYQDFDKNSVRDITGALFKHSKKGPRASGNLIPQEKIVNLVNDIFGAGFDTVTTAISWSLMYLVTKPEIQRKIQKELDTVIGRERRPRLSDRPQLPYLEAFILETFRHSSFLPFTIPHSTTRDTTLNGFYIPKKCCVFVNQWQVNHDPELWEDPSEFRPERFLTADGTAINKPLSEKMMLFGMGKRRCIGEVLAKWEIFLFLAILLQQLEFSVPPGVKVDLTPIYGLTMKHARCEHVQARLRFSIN

human CYP2C9 = human CYP2C9 (Homo sapiens, UniProt P11712)
Sequence of human CYP2C9 (P11712 whole entry): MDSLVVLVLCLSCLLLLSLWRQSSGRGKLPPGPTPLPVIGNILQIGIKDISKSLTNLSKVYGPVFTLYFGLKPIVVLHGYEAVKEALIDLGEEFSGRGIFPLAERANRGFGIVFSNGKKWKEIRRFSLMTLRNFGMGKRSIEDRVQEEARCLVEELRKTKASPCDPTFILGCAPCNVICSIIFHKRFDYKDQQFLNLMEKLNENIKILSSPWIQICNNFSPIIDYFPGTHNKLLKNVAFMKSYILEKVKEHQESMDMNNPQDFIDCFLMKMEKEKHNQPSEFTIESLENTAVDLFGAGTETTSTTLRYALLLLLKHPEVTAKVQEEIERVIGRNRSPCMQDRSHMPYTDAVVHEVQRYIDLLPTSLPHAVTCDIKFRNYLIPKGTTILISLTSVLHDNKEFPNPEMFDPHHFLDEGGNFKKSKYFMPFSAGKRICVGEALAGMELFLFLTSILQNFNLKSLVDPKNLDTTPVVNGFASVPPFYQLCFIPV

human CYP2C19 = human CYP2C19 (Homo sapiens, UniProt P33261)
Sequence of human CYP2C19 (P33261 whole entry): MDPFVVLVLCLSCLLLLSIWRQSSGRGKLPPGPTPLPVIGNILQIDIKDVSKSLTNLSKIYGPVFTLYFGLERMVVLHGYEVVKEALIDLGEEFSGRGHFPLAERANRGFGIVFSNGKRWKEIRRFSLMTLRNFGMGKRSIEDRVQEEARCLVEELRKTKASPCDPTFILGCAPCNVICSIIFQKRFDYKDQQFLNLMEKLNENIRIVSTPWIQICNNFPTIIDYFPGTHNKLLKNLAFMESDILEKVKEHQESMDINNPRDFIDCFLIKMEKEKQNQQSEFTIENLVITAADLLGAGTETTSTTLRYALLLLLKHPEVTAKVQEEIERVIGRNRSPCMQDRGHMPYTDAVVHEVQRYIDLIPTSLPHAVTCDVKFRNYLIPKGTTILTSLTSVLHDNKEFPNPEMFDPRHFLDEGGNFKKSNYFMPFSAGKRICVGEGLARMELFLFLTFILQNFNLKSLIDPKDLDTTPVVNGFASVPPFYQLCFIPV

human CYP2D6 = human CYP2D6 (Homo sapiens, UniProt P10635)
Sequence of human CYP2D6 (P10635 whole entry): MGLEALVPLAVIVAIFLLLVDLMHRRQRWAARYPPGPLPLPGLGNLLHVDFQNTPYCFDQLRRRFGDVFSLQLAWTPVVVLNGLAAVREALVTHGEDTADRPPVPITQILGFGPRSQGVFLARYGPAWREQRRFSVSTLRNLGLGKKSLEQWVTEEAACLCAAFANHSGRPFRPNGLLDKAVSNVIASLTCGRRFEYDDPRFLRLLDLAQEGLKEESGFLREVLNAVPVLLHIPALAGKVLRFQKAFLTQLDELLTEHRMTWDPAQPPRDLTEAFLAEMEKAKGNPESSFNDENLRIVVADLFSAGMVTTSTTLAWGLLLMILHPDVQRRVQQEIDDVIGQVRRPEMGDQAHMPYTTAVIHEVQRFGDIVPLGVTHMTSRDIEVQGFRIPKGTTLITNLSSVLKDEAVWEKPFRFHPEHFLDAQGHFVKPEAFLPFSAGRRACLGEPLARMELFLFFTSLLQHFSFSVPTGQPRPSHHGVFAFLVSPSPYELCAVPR

CYP3A4 = CYP3A4 (Homo sapiens, UniProt P08684)
Sequence of CYP3A4 (P08684 whole entry): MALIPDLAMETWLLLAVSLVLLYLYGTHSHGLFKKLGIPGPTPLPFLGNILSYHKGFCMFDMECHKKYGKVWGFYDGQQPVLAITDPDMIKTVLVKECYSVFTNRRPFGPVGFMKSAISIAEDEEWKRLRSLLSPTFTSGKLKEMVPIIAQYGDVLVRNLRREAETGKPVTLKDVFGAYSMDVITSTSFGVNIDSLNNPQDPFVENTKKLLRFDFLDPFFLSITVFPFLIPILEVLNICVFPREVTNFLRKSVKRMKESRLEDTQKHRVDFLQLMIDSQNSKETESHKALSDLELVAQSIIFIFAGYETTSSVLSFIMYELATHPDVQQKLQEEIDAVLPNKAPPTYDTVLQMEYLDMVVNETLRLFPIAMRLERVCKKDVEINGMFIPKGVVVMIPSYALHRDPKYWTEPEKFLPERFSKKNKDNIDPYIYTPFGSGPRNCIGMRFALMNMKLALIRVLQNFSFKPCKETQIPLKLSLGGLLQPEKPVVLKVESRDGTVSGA

Sequence of Photinus pyralis (firefly) luciferase (P08659 whole entry): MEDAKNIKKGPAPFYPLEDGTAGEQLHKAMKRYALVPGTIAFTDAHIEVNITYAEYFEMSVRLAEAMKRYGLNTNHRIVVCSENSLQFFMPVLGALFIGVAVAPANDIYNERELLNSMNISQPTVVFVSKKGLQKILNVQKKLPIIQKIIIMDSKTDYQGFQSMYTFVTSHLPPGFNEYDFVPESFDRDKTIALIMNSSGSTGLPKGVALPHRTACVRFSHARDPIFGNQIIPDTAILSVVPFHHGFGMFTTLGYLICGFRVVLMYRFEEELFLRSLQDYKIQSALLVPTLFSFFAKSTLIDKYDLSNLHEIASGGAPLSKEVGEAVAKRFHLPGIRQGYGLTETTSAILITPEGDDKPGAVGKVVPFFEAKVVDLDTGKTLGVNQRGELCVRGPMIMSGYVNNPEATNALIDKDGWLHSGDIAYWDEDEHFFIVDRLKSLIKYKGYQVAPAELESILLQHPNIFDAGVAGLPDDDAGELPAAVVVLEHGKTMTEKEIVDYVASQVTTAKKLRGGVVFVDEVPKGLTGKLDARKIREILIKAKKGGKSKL

For CNC(C)Cc1ccc2c(c1)OCO2.Cl (stereo not shown), the “Luciferase IC50 (half-maximal inhibitory concentration)” value [1] was “Inactive”, the “CYP1A2 IC50 (half-maximal inhibitory concentration)” value (human CYP1A2) was “Inactive” and the “CYP2C9 IC50 (half-maximal inhibitory concentration)” value (human CYP2C9) was “Inactive”. For the same compound, the “CYP2C19 IC50 (half-maximal inhibitory concentration)” value (human CYP2C19) was “Inactive”, the IC50 (human CYP2D6) was 0.4 µM and the “CYP3A4 IC50 (half-maximal inhibitory concentration)” value (CYP3A4) was “Inactive”.
With CC(=O)OC1(c2ccccc2)CCN(CCc2ccccc2)CC1 the “Luciferase IC50 (half-maximal inhibitory concentration)” value [1] was “Inactive”, the “CYP1A2 IC50 (half-maximal inhibitory concentration)” value (human CYP1A2) was “Inactive” and the AC50 (human CYP2C9) was 53.2 µM. The IC50 (human CYP2C9) was 53.2 µM, the AC50 (human CYP2C19) was 36.6 µM and the IC50 (human CYP2C19) was 36.6 µM. The “CYP2D6 Efficacy” value (human CYP2D6) was 0.57 ± 0.14 (-105 ± 2) %, the IC50 (human CYP2D6) was 0.57 µM and the AC50 (CYP3A4) was 40.9 µM. For the same compound, the “CYP3A4 IC50 (half-maximal inhibitory concentration)” value (CYP3A4) was 40.89 ± 0 (145 ± 9) µM.
For FC(F)(F)c1ccccc1-n1ccnc1, the “Luciferase IC50 (half-maximal inhibitory concentration)” value [1] was “Inactive”, the IC50 (human CYP1A2) was 4.14 µM and the IC50 (human CYP2C9) was 8.39 µM. For the same compound, the “CYP2C19 Efficacy” value (human CYP2C19) was 9.3 ± 5.41 (-172 ± 73) %, the IC50 (human CYP2D6) was 2.28 µM and the IC50 (CYP3A4) was 0.44 µM.
With CC(C)(C)c1cc(CCC(=O)NN)cc(C(C)(C)C)c1O the “Luciferase IC50 (half-maximal inhibitory concentration)” value [1] was “Inactive”, the “CYP1A2 Efficacy (in parenthesis)” value (human CYP1A2) was 6.97 ± 1.74 (-102 ± 5) % and the IC50 (human CYP1A2) was 6.97 µM. The “CYP2C9 Efficacy (in parenthesis)” value (human CYP2C9) was 5.92 ± 1.06 (-98 ± 3) %, the IC50 (human CYP2C9) was 5.92 µM and the “CYP2C19 Efficacy (in parenthesis)” value (human CYP2C19) was 5.4 ± 1.6 (-136 ± 2) %. For the same compound, the IC50 (human CYP2C19) was 5.4 µM, the “CYP2D6 Efficacy (in parenthesis)” value (human CYP2D6) was 34.28 ± 2.23 (-95 ± 1) % and the IC50 (human CYP2D6) was 34.3 µM. The “CYP3A4 Efficacy (in parenthesis)” value (CYP3A4) was 0.14 ± 0.02 (-94 ± 4) % and the IC50 (CYP3A4) was 0.14 µM.
C=CCc1cc(S(=O)(=O)c2ccc(O)c(CC=C)c2)ccc1O was tested, and the “Luciferase IC50 (half-maximal inhibitory concentration)” value [1] was “Inactive”, the “CYP1A2 Efficacy (in parenthesis)” value (human CYP1A2) was 73.87 ± 5 (-42 ± 2) % and the IC50 (human CYP1A2) was 73.9 µM. The “CYP2C9 Efficacy (in parenthesis)” value (human CYP2C9) was 0.4 ± 0.13 (-67 ± 11) %, the IC50 (human CYP2C9) was 0.4 µM and the “CYP2C19 Efficacy (in parenthesis)” value (human CYP2C19) was 3.47 ± 1.89 (-136 ± 7) %. For the same compound, the IC50 (human CYP2C19) was 3.47 µM, the “CYP2D6 Efficacy (in parenthesis)” value (human CYP2D6) was 6.26 ± 1.74 (-110 ± 9) % and the IC50 (human CYP2D6) was 6.26 µM. The “CYP3A4 Efficacy (in parenthesis)” value (CYP3A4) was 20.01 ± 7.14 (-71 ± 11) % and the IC50 (CYP3A4) was 20 µM.
CCCC[P+](CC)(CCCC)CCCC.CCOP(=O)([O-])OCC was tested, and the “Luciferase IC50” value [1] was “Inactive”, the “CYP1A2 IC50” value (human CYP1A2) was “Inactive” and the “CYP2C9 IC50” value (human CYP2C9) was “Inactive”. For the same compound, the “CYP2C19 Efficacy” value (human CYP2C19) was 70.71 ± 33.56 (-88 ± 37) %, the IC50 (human CYP2D6) was 0.06 µM and the “CYP3A4 IC50” value (CYP3A4) was “Inactive”.
Cl.Cl.NCCNc1cccc2ccccc12 was tested, and the “Luciferase IC50” value [1] was “Inactive”, the “CYP1A2 Efficacy” value (human CYP1A2) was 0.57 ± 0.07 (-100 ± 5) % and the “CYP2C9 Efficacy” value (human CYP2C9) was 17.25 ± 2.37 (-110 ± 3) %. The “CYP2C19 Efficacy” value (human CYP2C19) was 24.7 ± 6.17 (-146 ± 5) %, the “CYP2D6 Efficacy” value (human CYP2D6) was 5.04 ± 0.58 (-104 ± 5) % and the IC50 (CYP3A4) was 31.8 µM.
In the case of CCCCCCCCCCCCCC[P+](CCCC)(CCCC)CCCC.CCCCCCCCCCCCc1ccc(S(=O)(=O)[O-])cc1, the “Luciferase IC50 (half-maximal inhibitory concentration)” value [1] is reported as “Inactive”, the “CYP1A2 AC50 (half-maximal activity concentration)” value (human CYP1A2) is reported as “Inconclusive inhibitor” and the “CYP1A2 Efficacy (in parenthesis)” value (human CYP1A2) is reported as 24.26 ± 16.34 (-39 ± 1) %. The IC50 (human CYP1A2) was 24.3 µM, the “CYP2C9 Efficacy” value (human CYP2C9) was 15.74 ± 3.82 (-84 ± 8) % and the “CYP2C9 Efficacy (in parenthesis)” value (human CYP2C9) was 15.74 ± 3.82 (-84 ± 8) %. The IC50 (human CYP2C9) was 15.7 µM, the “CYP2C19 Efficacy” value (human CYP2C19) was 21.96 ± 3.74 (-142 ± 38) % and the “CYP2C19 Efficacy (in parenthesis)” value (human CYP2C19) was 21.96 ± 3.74 (-142 ± 38) %. The IC50 (human CYP2C19) was 22 µM, the “CYP2D6 Efficacy” value (human CYP2D6) was 0.21 ± 0.10 (-107 ± 3) % and the “CYP2D6 Efficacy (in parenthesis)” value (human CYP2D6) was 0.21 ± 0.1 (-107 ± 3) %. The IC50 (human CYP2D6) was 0.21 µM, the AC50 (CYP3A4) was 7.93 µM and the “CYP3A4 Efficacy (in parenthesis)” value (CYP3A4) was 7.93 ± 2.21 (104 ± 17) %. The “CYP3A4 IC50 (half-maximal inhibitory concentration)” value (CYP3A4) was 7.93 ± 2.21 (104 ± 17) µM.
With Cc1cc(CCC(=O)OCCOCCOCCOC(=O)CCc2cc(C)c(O)c(C(C)(C)C)c2)cc(C(C)(C)C)c1O the “Luciferase IC50 (half-maximal inhibitory concentration)” value [1] was “Inactive”, the “CYP1A2 IC50 (half-maximal inhibitory concentration)” value (human CYP1A2) was “Inactive” and the “CYP2C9 Efficacy (in parenthesis)” value (human CYP2C9) was 0.55 ± 0.06 (-101 ± 5) %. The IC50 (human CYP2C9) was 0.55 µM, the “CYP2C19 Efficacy (in parenthesis)” value (human CYP2C19) was 4.01 ± 1.12 (-130 ± 10) % and the IC50 (human CYP2C19) was 4.01 µM. For the same compound, the “CYP2D6 Efficacy (in parenthesis)” value (human CYP2D6) was 9.78 ± 0 (-91 ± 3) %, the IC50 (human CYP2D6) was 9.78 µM and the “CYP3A4 Efficacy (in parenthesis)” value (CYP3A4) was 2.56 ± 0.17 (-86 ± 4) %. The IC50 (CYP3A4) was 2.56 µM.

Reference: paper PMC12155096 (International Journal of Molecular Sciences, 2025)
